Counter-ions that a name gives are not always drawn.
What was measured:
Assay type in all cases: in vivo, human
[1] = system: sciatic nerve (motor block) in subjects undergoing bunionectomy; experiment: Pharmacodynamics: onset and duration of motor block (foot movement), clinical trial #1 Part A
Description: (§1) Clinical Study #1 was a Phase 3, multicenter, randomized, double-blind, active-controlled study in 180 subjects undergoing bunionectomy. Subjects received a sciatic (in the popliteal fossa) nerve block with a single dose of either EXPAREL 266 mg (EXP266), EXPAREL 133 mg (EXP133), or 0.25% bupivacaine HCl (50 mg; BUP50). The study was conducted in two parts (Part A and Part B). Part A was to be completed and analyzed before enrollment in Part B was initiated. Part A was a 3-arm cohort with 66 subjects undergoing bunionectomy to obtain information on pharmacokinetics (PK), pharmacodynamics (PD), efficacy, and safety. Subjects were randomized (1:1:1) to the EXP266, EXP133, and BUP50 treatment arms. Part B was a 2-arm cohort with 119 subjects undergoing bunionectomy to evaluate the efficacy and safety of EXPAREL compared with bupivacaine HCl. The dose of the EXPAREL arm in Part B was determined based on the interim analysis of the Part A cohort results.
(§2) On the day of surgery, subjects received an ultrasound-guided sciatic (in the popliteal fossa) nerve block with one of the following treatments: • EXP266 arm: subjects randomized to this treatment arm received 20 mL (266 mg) EXPAREL mixed with 10 mL saline (Part A only; per interim analysis was not selected for Part B) • EXP133 arm: subjects randomized to this treatment arm received 10 mL (133 mg) EXPAREL mixed with 20 mL saline (Part A and B) • BUP50 arm: subjects randomized to this treatment arm received 20 mL (50 mg) 0.25% bupivacaine HCl mixed with 10 mL saline (Part A and B)
(§3) Efficacy assessments included pain intensity scores focused on the operative foot using the Numeric Rating Scale (NRS), total postsurgical opioid consumption in OMED, time to first opioid consumption post-surgery, and percentage of opioid-free patients through 96 hours, and worst and average NRS pain intensity scores at 24 h, 48 h, 72 h, and 96 h from end of surgery. Additionally, blood samples for pharmacokinetic (PK) analysis (area under the curve [AUC], maximum plasma concentration [Cmax], time of maximum plasma concentration [Tmax], including early and late Cmax and Tmax (EXP133-ADMIX arm only), apparent terminal elimination half-life [t1/2el], apparent clearance [CL/F], and apparent volume of distribution [Vd/F]). Pharmacodynamic (PD) assessment data, including median time to onset of sensory block and motor block, and median duration of sensory and motor block were collected.
(§4) Pharmacodynamic endpoints included: onset of sensory block, offset of sensory block, duration of sensory block, onset of motor block, offset of motor block, and duration of motor block.

[2] = system: subjects undergoing bunionectomy; experiment: Postsurgical opioid consumption, opioid-free subjects and time to first opioid rescue, clinical trial #1
Description: Clinical Study #1 was a Phase 3, multicenter, randomized, double-blind, active-controlled study in 180 subjects undergoing bunionectomy. Subjects received a sciatic (in the popliteal fossa) nerve block with a single dose of either […] 266 mg ([…] 133 mg (EXP133), or 0.25% bupivacaine HCl (50 mg; BUP50). The study was conducted in two parts (Part A and Part B). Part A was to be completed and analyzed before enrollment in Part B was initiated. Part A was a 3-arm cohort with 66 subjects undergoing bunionectomy to obtain information on pharmacokinetics (PK), pharmacodynamics (PD), efficacy, and safety. Subjects were randomized (1:1:1) to the EXP266, EXP133, and BUP50 treatment arms. Part B was a 2-arm cohort with 119 subjects undergoing bunionectomy to evaluate the efficacy and safety of […] compared with bupivacaine HCl. The dose of the […] arm in Part B was determined based on the interim analysis of the Part A cohort results. On the day of surgery, subjects received an ultrasound-guided sciatic (in the popliteal fossa) nerve block with one of the following treatments: • EXP266 arm: subjects randomized to this treatment arm received 20 mL (266 mg) […] mixed with 10 mL saline (Part A only; per interim analysis was not selected for Part B) • EXP133 arm: subjects randomized to this treatment arm received 10 mL (133 mg) […] mixed with 20 mL saline (Part A and B) • BUP50 arm: subjects randomized to this treatment arm received 20 mL (50 mg) 0.25% bupivacaine HCl mixed with 10 mL saline (Part A and B) Postsurgical pain for breakthrough pain. An unscheduled pain intensity assessment using the NRS (measured as “On a scale from 0 to 10, where 0 equals no pain and 10 equals the worst possible pain, how much pain are you experiencing in your operative foot right now?”) was to be completed immediately prior to administration of any breakthrough pain medication up to 96 h post-surgery. Medications were administered PRN; opioids were not to be given on a pre-determined schedule. […] All postsurgical analgesics administered, were to be recorded through hospital discharge. […]

[3] = system: sciatic nerve (sensory block) in subjects undergoing bunionectomy; experiment: Pharmacodynamics: onset and duration of sensory block, clinical trial #1 Part A
Description: as §1, §2, §3, §4

## CCCCN1CCCCC1C(=O)Nc1c(C)cccc1C (stereo not shown) [BUP50, bupivacaine HCl]
[1]; 1 h post-dose for EXP266, 2 h post-dose for EXP133 and BUP50
  subjects without foot movement at the first time point with ≥50%: 54.5%
[1]; 84 h post-dose
  subjects who still did not have complete foot movement: 18.2%
[1]; human, in vivo
  subjects with motor block onset observed: 40.9%
[1]; post-dose
  first time point at which foot movement was not present in ≥50% of subjects: 2 h
[2]; 0 to 96 h post-surgery, EXP266 Part A, EXP133 and BUP50 Part A+B
  estimate of the proportion of opioid-free subjects: 9.8%
[2]; EXP266 Part A, EXP133 and BUP50 Part A+B
  proportion of subjects who received opioid breakthrough medication: 90.2%
[2]; post-surgery, Kaplan-Meier
  median time to first rescue medication: 20.68 h
[3]; 30 min post-dose for BUP50, 2 h for EXP266 and EXP133
  subjects without sensation at the first time point with ≥50%: 59.1%
[3]; 60 h post-dose
  subjects who still did not have complete sensation: all BUP50 subjects had regained sensation
[3]; human, in vivo
  median duration of sensory block: 29.10 h
  median time to sensory block: 0.46 h
  subjects with sensory block onset observed: 63.6%
[3]; post-dose
  first time point at which sensation was not present in ≥50% of subjects: 30 min

From patent US11918565B1, “Treatment of post-operative pain via sciatic nerve block with sustained-release liposomal anesthetic compositions” (Pacira Pharmaceuticals, Inc., priority 2022, dated 2024)
